According to US10550116B2, “Fused bicyclic heterocycle derivatives as pesticides” (BAYER CROPSCIENCE AKTIENGESELLSCHAFT, priority 2015, dated 2020):

What was measured:
Phaedon cochleariae = Phaedon cochleariae spray test; type: in vivo; conditions: foliar, 168 h, 500 g/ha, larvae on Chinese cabbage leaf discs, after 7 days, read-out: efficacy
Procedure: (§1) To produce a suitable active ingredient preparation, 1 part by weight of active ingredient is dissolved with the stated parts by weight of solvent and made up with water containing an emulsifier concentration of 1000 ppm until the desired concentration is attained. To produce further test concentrations, the preparation is diluted with emulsifier-containing water. Discs of Chinese cabbage leaves (Brassica pekinensis) are sprayed with an active ingredient preparation of the desired concentration and, after drying, populated with larvae of the mustard beetle (Phaedon cochleariae). After 7 days, the efficacy in % is determined. 100% means that all the beetle larvae have been killed; 0% means that no beetle larvae have been killed.

Spodoptera frugiperda = Spodoptera frugiperda spray test; type: in vivo; conditions: foliar, 168 h, 500 g/ha, caterpillars on maize leaf discs, after 7 days, read-out: efficacy
Procedure: as §1, with “water. Leaf discs” for “water. Discs”, “of maize (Zea mays)” for “of Chinese cabbage leaves (Brassica pekinensis)”, “with caterpillars” for “with larvae”, “the armyworm (Spodoptera frugiperda).” for “the mustard beetle (Phaedon cochleariae).”, “the caterpillars” for “the beetle larvae”, “no caterpillar has” for “no beetle larvae have”

Ctenocephalides felis [1] = assay: Ctenocephalides felis oral test; type: in vivo; conditions: 100 ppm in citrated cattle blood; adult cat fleas; after 2 days
Procedure: For the purpose of production of a suitable active ingredient preparation, 10 mg of active ingredient are mixed with 0.5 ml of dimethyl sulphoxide. Dilution with citrated cattle blood gives the desired concentration. About 20 unfed adult cat fleas (Ctenocephalides felis) are placed into a chamber which is closed at the top and bottom with gauze. A metal cylinder whose bottom end is closed with parafilm is placed onto the chamber. The cylinder contains the blood/active ingredient preparation, which can be imbibed by the fleas through the parafilm membrane. After 2 days, the kill in % is determined. 100% means that all of the fleas have been killed; 0% means that none of the fleas have been killed.

Myzus persicae = Myzus persicae spray test; type: in vivo; conditions: foliar, 100 g/ha, Chinese cabbage leaf discs, after 5-6 days, read-out: efficacy
Procedure: as §1, with “pekinensis) infested by all stages of the green peach aphid (Myzus persicae)” for “pekinensis)”, “concentration.” for “concentration and, after drying, populated with larvae of the mustard beetle (Phaedon cochleariae).”, “5-6” for “7”, “aphids” for “beetle larvae”

[2] = log P by HPLC on reversed-phase column (EEC Directive 79/831 Annex V.A8); type: physicochemical; conditions: reversed-phase C18 HPLC column; pH 7.8, aqueous ammonium hydrogencarbonate/acetonitrile; 55° C.; read-out: log P (neutral)
Procedure: The log P values are measured according to EEC Directive 79/831 Annex V.A8 by HPLC (high-performance liquid chromatography) on a reversed-phase column (C 18). Temperature: 55° C. The LC-MS determination in the acidic range is effected at pH 2.7 using 0.1% aqueous formic acid and acetonitrile (contains 0.1% formic acid) as eluents; linear gradient from 10% acetonitrile to 95% acetonitrile. Called log P (HCOOH) in the table. LC-MS determination in the neutral range is effected at pH 7.8 with 0.001 molar aqueous ammonium hydrogencarbonate solution and acetonitrile as eluents; linear gradient from 10% acetonitrile to 95% acetonitrile. Called log P (neutral) in the table. Calibration is carried out using unbranched alkan-2-ones (having 3 to 16 carbon atoms) with known log P values (log P values determined on the basis of the retention times by linear interpolation between two successive alkanones).

Lucilia cuprina = Lucilia cuprina test; type: in vivo; conditions: 100 ppm; L1 larvae; after 2 days
Procedure: To produce a suitable active ingredient preparation, 10 mg of active ingredient are mixed with 0.5 ml of dimethyl sulphoxide, and the concentrate is diluted with water to the desired concentration. About 20 L1 larvae of the Australian sheep blowfly (Lucilia cuprina) are transferred into a test vessel containing minced horsemeat and the active ingredient preparation of the desired concentration. After 2 days, the kill in % is determined. 100% means that all the larvae have been killed; 0% means that no larvae have been killed.

Meloidogyne incognita = Meloidogyne incognita test; type: in vivo; conditions: 20 ppm; lettuce; after 14 days
Procedure: To produce a suitable preparation of active ingredient, 1 part by weight of active ingredient is mixed with the stated amount of solvent and the concentrate is diluted with water to the desired concentration. Vessels are filled with sand, active ingredient solution, an egg/larvae suspension of the southern root-knot nematode (Meloidogyne incognita) and lettuce seeds. The lettuce seeds germinate and the plants develop. The galls develop on the roots. After 14 days, the nematicidal efficacy in % is determined by the formation of galls. 100% means that no galls were found; 0% means that the number of galls on the treated plants corresponds to the untreated control.

Ctenocephalides felis [3] = assay: Ctenocephalides felis in vitro contact test with adult cat fleas; type: in vivo; conditions: application rate 5 μg/cm^2 (=500 g/ha), after 48 h
Procedure: For the coating of the test tubes, 9 mg of active ingredient are first dissolved in 1 ml of acetone p.a. and then diluted to the desired concentration with acetone p.a. 250 μl of the solution are distributed homogeneously on the inner walls and the base of a 25 ml test tube by turning and rocking on an orbital shaker (rocking rotation at 30 rpm for 2 h). With 900 ppm active ingredient solution and internal surface area 44.7 cm^2, given homogeneous distribution, an area-based dose of 5 μg/cm^2 is achieved. After the solvent has evaporated off, the tubes are populated with 5-10 adult cat fleas (Ctenocephalides felis), sealed with a perforated plastic lid and incubated in a horizontal position at room temperature and ambient humidity. After 48 h, efficacy is determined. To this end, the test tubes are stood upright and the fleas are knocked to the base of the tube. Fleas which remain motionless at the base or move in an uncoordinated manner are considered to be dead or moribund. […] 100% efficacy means that all the fleas were dead or moribund. 0% efficacy means that no fleas were harmed.

Musca domestica = Musca domestica test; type: in vivo; conditions: 4 ppm; adult houseflies; after 2 days
Procedure: To produce a suitable active ingredient preparation, 10 mg of active ingredient are mixed with 0.5 ml of dimethyl sulphoxide, and the concentrate is diluted with water to the desired concentration. Vessels containing a sponge treated with sugar solution and the active ingredient preparation of the desired concentration are populated with 10 adult houseflies (Musca domestica). After 2 days, the kill in % is determined. 100% means that all of the flies have been killed; 0% means that none of the flies have been killed.

chromatographic logP [2]: 2.75
Structure (SMILES): CCS(=O)(=O)c1cc2ccccc2nc1-c1nc2cc(C(F)(F)F)ncc2n1C [Example I-1, 3-Ethylsulphonyl-2-[3-methyl-6-(trifluoromethyl)imidazo[4,5-c]pyridin-2-yl]quinoline]
pest or weed control at 500 g/ha (Phaedon cochleariae): 100%
pest or weed control at 500 g/ha (Spodoptera frugiperda): 100%
efficacy (kill) (Ctenocephalides felis [1]): 100%
pest or weed control at 100 g/ha (Myzus persicae): 90%
efficacy (kill) (Lucilia cuprina): 100%
nematicidal efficacy (formation of galls) (Meloidogyne incognita): 70%
efficacy (Ctenocephalides felis [3]): 100%
efficacy (kill) (Musca domestica): 75%
